# Values joined by “and” are separate entries in the source; they are usually repeats but may differ in a detail not shown here. Identical values can stand only once. Like-named read-outs stand apart in the source and are kept apart here.
# Legend:
# [1] = test system: keratinocytes; assay: Defensive effect against exposure of keratinocytes to UV light (cell viability); type: cell-based; conditions: UV light 40 W double lamp 8 minutes, viability after 24 hours, 2.5 cc medium in 5 cc KGM or 2 uM retinol
# Protocol: The defensive effect of growth factors secreted from adipose-derived stem cells against the exposure of keratinocytes UV light was tested in the following manner. Keratinocytes were dispensed into a 6-well plate at a suitable cell concentration in KGM (karatinocyte growth medium; Clonetics.) and incubated in a 5% carbon dioxide incubator at 37° C. To the medium, 2.5 cc of 100% ADSC 3-passage 3-day cultured medium was added to adjust the KGM to 5 cc. Also, 2 uM retinol was added to 5 cc of KGM. Also, as a negative control group, 5 cc of KGM alone was administered to keratinocytes. Each of the test samples was stabilized for 4 hours, such that the raw materials were sufficiently dispersed. After that, each of the test samples was irradiated with UV light using a 40 W double lamp for 8 minutes in an aseptic laboratory. After 24 hours, the UV defense function of the test sample was measured by determining the viability of the cells in comparison with the negative control group, which was untreated with the culture medium or retinol and irradiated with UV light for 8 minutes.
# [2] = test system: adipose-derived stem cells; assay: Growth factor secretion (ELISA) of adipose-derived stem cells under chemical stimulation with vitamins; type: cell-based, human; conditions: for optimal concentration for synthesis of growth factors: added to serum-free culture medium of adipose-derived stem cells; for TGF β-1 expression / protein levels increased / VEGF expression / protein levels increased / bFGF expression / protein levels increased: chemical stimulation only, vitamin(s) at optimal concentration in serum-free medium, more than 48 hours, compared with control group
# Protocol: In order to examine whether chemical stimulation using a vitamin promotes the synthesis and secretion of growth factors, in the present invention, adipose-derived stem cells were cultured in vitro using serum media and then using serum-free media as described above.
# Preferably, after vitamin is added to the culture medium, the culture is incubated for more than 48 hours. When a mixture of vitamins is used, the optimal concentrations of vitamins are the same as above.
# Specifically, 1 ml of the culture medium obtained by culturing adipose-derived stem cells to passage 3 in the conditions of Example 1-2 was centrifuged at 1200 g for 5 minutes, and then filtered through a […] filter to remove cell residue. […] Then, the concentration of each of growth factors VEGF, bFGF and TGF β-1 secreted in the culture medium was measured using a sandwich ELISA kit (Quantikine Human FGF basic Immunoassay, R&D systems).
# To examine the concentrations of optimally diluted growth factors, the culture medium was serially diluted at the same concentration ratio with a calibration dilution in the kit, the concentration at the absorbance included in the range of the standard curve was determined, and the values included in the range of the standard curve were plotted as data. […] of each growth factor-containing culture media and standard solutions of growth factors was placed in each well coated with an antibody to each of the growth factors (Quantikine Human FGF basic Immunoassay, R&D systems) and was cultured at room temperature for 2 hours. After completion of the antigen-antibody binding reaction, each well was washed four times with wash buffer, and […] of a solution (Quantikine Human FGF basic Immunoassay, R&D systems), containing a secondary antibody to each of the growth factors, was placed in each well, followed by culture at room temperature for 2 hours. After completion of the second antibody binding reaction, each well was washed four times with wash buffer, […] of a color-developing reagent (tetramethylbenzidine, R&D systems) was added to each well, and then the absorbance of the medium was measured at 450 nm with an ELISA reader.
# Adipose tissue-derived stem cells were cultured to passage 3 as described in Example (1-2), and when the cultured cells reached a confluence of 80%, the cells were collected with trypsin/EDTA. Then, the cells were accurately dispensed into a 6-well plate at a density of 25,000 cells/well. […]
# Cells were cultured in this medium.
# The cells were cultured in the above medium in a 5% carbon dioxide incubator at 37° C. for more than 48 hours, and then 200 μl of the culture medium supernatant was centrifuged at 3,000 rpm and filtered through 0.22-μm filter paper. Then, the concentrations of bFGF, VEGF and TGF β-1 in the filtrate were measured by the enzyme-linked immunosorbent assay (ELISA) of Example 2.
# As a control group, a normal medium, was used, which was not subjected to physical stimulation or chemical stimulation. The increase in growth factors was compared between the control group and the culture medium subjected to physical stimulation and chemical stimulation.
# In a culture process, cells were added to a serum-free medium prepared by adding a Ham's F-12 nutrient mixture to DMEM not containing a pH indicator such as phenol red, at a ratio of 1:1, and adding thereto 2 mM L-glutamine, 1 mM sodium pyruvate and 0.17% sodium bicarbonate. Then, the cells were cultured in a 5% carbon dioxide incubator at 37° C. for more than 48 hours. Then, 200 μl of the culture medium supernatant was centrifuged at 3,000 rpm, and then filtered through 0.22-μm filter paper. Then, the concentrations of bFGF, VEGF and TGF β-1 were measured by the enzyme-linked immunosorbent assay (ELISA) of Example 2.
# The case where physical stimulation is used in combination with chemical stimulation will now be described.
# For VEGF, a medium was irradiated with UV light and then subjected to scratch stimulation. […]
# [3] = test system: adipose-derived stem cells
# [4] = test system: fibroblast cells; assay: Cell proliferation potential: stem cell culture medium vs recombinant growth factor-containing media; type: cell-based, human; conditions: 5000 cells/well seeded; rFGF 50 ng, rVEGF 500 ng in normal media; stem cell medium at 100%
# Protocol: Stem cells isolated from adipose tissue were cultured to passage-3 as described in Example (1-2), and then 10^6 cells of the stem cells were seeded into a T175 flask (area: 175 cm^2; volume: 500 ml) and cultured for 3 days. The culture medium was collected, and added at a concentration of 100% to a 6-well plate in which passage-4 fibroblast cells from the skin tissue of a child were dispensed at a density of 5000 cells/well. For the control group, a medium containing the same concentrations of recombinant growth factors VEGF and bFGF (Santa Cruz.) expressed in E. coli was used. Cell proliferation potential was compared between the adipose-derived stem cell culture medium and the recombinant growth factor-containing culture medium using a cell viability measurement kit.
Molecule,Defensive effect [1] [%],Defensive effect ([1]; listed as retinol) [%],optimal concentration for synthesis of growth factors [2],TGF β-1 expression / protein levels increased [2] [times],VEGF expression / protein levels increased [2],bFGF expression / protein levels increased [2] [times],cytotoxicity by MTT assay ([3]; at the optimal concentrations),"cell proliferation potential, Cells [4] [Cells]",cytotoxicity by MTT assay [3]
CC1=C(/C=C/C(C)=C/C=C/C(C)=C/CO)C(C)(C)CCC1 [Retinol],54,54,,,,,,,
"Cc1cc2nc3c(=O)[nH]c(=O)nc-3n(C[C@H](O)[C@H](O)[C@H](O)CO)c2cc1C [vitamin B, riboflavin]",,,50 to 100 µM,1.56,1.68 times and 1.56 times,1.33,,,
O=C1O[C@H]([C@@H](O)CO)C(O)=C1O [vitamin C],,,10 to 100 µM,1.20,1.68 times,2.33,no cytotoxicity occurred,,
rFGF: recombinant growth factor bFGF (Santa Cruz) expressed in E. coli,,,,,,,,8215.3,
vitamin A,,,2 to 5 µM and 2 to 10 µM,1.20,1.59 times,1.62,,,no cytotoxicity occurred
vitamin D,,,5 to 10 µM,1.16,1.30 times,2.80,,,
